Measured values as given in publication PMC6269910 (Molecules, 2013).

Legend:
[1] = tested on: lipid peroxidation in stomach; assay: Lipid peroxidation in stomach (TBARS); format: in vivo, mice; settings: 100 mg/kg, 8 h after analgesic test
glutathione (GSH) = assay: GSH level in liver, kidney, colon, brain; format: in vivo, mice; settings: 72 h
Method: (§1) Tissue samples were homogenized with ice-cold 150 mM KCl for the determination of LPO and glutathione (GSH) levels. The LPO levels were assayed by monitoring TBARS formation as described above.

[2] = molecular target: T1, HCV NS5B RNA dependent RNA polymerase (Hepatitis C virus genotype 1b, UniProt P26663); assay: NS5B inhibition assay (primer dependent elongation, poly rA-U12); format: biochemical; settings: read-out: Anti-NS5B Activity (% Inh., 100 µM)
T1 construct: HCV NS5B RNA dependent RNA polymerase activity
Method: The compounds 1a–e and 2a–e were reconstituted in DMSO as 50 mM stocks, and serially diluted in DMSO to obtain working stocks. Wedelolactone, a known inhibitor of HCV NS5B activity, was employed as a reference compound. Preliminary screening was carried out at 100 μM to identify a wider range of compounds.
All synthesized compounds were evaluated for their effect on HCV NS5B RNA dependent RNA polymerase activity in primer dependent elongation assays as previously described. Activity of NS5B in the absence of the inhibitor but containing an equivalent amount of DMSO (control reaction) was set at 100% and that in the presence of the inhibitor was quantified relative to this control.

[3] = tested on: acetic acid-induced abdominal constriction; assay: Acetic acid-induced writhing (Koster) test; format: in vivo, mice; settings: 100 mg/kg oral
Method: Test samples, suspended in a mixture of distilled water and 0.5% sodium carboxymethyl cellulose (CMC), were given orally to the animals. The control group animals received the same experimental handling as those of the test groups, except that the drug treatment was replaced with appropriate volumes of the dosing vehicle. […] One hour after oral administration of test sample, each mouse was injected intraperitoneally with 3% (w/v) acetic acid solution (0.1 mL/10 g, bw). Starting 5 min after the acetic acid injection, the number of muscular contractions on mice were counted for a period of 10 min. A significant reduction in the number of writhings by any treatment as compared to the number of writhings in control animals was considered a positive analgesic response. The analgesic activity was expressed as a percentage change from writhing controls. ASA was used as a reference compound and administered at 200 mg/kg.

LPO = LPO (TBARS) level in liver, kidney, colon, brain; format: in vivo, mice; settings: 72 h
Method: as §1

[4] = tested on: 60 human tumor cell lines; assay: NCI60 in vitro cancer screen; format: cell-based; settings: 10 µM; variety of cell lines
Text: The selected compound N-(ethylcarbamothioyl)-4-[5-(4-methylphenyl)-3-(trifluoromethyl)-1H-pyrazol-1-yl]benzenesulfonamide (1a) was screened by the National Institutes of Health (NIH) for anticancer activity against 60 human tumor cell lines. Most of the compounds in the series of structures submitted include one or more functional groups that have been found troublesome to the development of successful drug candidates. In addition, the selection criteria guidance available at the following DTP web site: http://www.dtp.nci.nih.gov/docs/misc/common_files/guidelines.html. For NCI criteria, compounds, which reduce the growth of any one of the cell lines to approximately 32% or less, are passed on for evaluation in the full panel of cell lines over a 5-log dose range.
The methodology of the NCI60 in vitro cancer screen can be found on-line at http://dtp.nci.nih.gov/branches/btb/ivclsp.html and can be reviewed on their web site.

stomach = assay: Gastric-ulcerogenic effect (ulcer score); format: in vivo, mice; settings: 200 mg/kg p.o.; animals with lesions/animals
[5] = tested on: superoxide dismutase (SOD); assay: SOD activity in liver, kidney, colon, brain; format: in vivo, mice; settings: 72 h
Method: SOD is a major antioxidant enzyme found in cells, which protect cells from oxidative stress. SOD activity in the tissue samples was measured according to the previously described method.

myeloperoxidase (MPO) = assay: MPO activity in liver, kidney, colon, brain; format: in vivo, mice; settings: 72 h
Method: MPO is an enzyme that is found predominantly in the azurophilic granules of polymorphonuclear leukocytes (PMN). […] MPO activity was measured in tissues in a procedure similar to that documented by […] et al.

T1 sequence (P26663 2420-3010): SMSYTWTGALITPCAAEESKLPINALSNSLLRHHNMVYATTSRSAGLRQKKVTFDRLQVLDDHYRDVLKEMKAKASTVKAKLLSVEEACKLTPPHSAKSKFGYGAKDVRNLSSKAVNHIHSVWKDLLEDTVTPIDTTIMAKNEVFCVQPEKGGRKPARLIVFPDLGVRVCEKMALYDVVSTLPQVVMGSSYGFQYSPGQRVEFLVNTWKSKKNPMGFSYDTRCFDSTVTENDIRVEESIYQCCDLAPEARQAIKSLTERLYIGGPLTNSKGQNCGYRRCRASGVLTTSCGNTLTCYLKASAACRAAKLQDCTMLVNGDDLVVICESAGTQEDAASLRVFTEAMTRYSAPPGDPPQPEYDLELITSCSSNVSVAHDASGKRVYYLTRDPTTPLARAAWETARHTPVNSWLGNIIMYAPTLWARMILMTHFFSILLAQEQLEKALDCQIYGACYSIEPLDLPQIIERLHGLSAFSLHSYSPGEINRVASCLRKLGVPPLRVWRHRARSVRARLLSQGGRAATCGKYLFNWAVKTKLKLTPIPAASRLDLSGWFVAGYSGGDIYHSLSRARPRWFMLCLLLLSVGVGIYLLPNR

Lipid peroxidation [1]: 387.7 ± 12.8 nmol TBARS/g wet weight
GSH (glutathione (GSH); brain, 100 mg/kg oral): 18.7 ± 5.52 µmol/g tissue
GSH (glutathione (GSH); brain, 200 mg/kg oral): 18.74 ± 3.03 µmol/g tissue
GSH (glutathione (GSH); colon, 100 mg/kg oral): 27.22 ± 2.41 µmol/g tissue
GSH (glutathione (GSH); colon, 200 mg/kg oral): 25.16 ± 2.76 µmol/g tissue
GSH (glutathione (GSH); kidney, 100 mg/kg oral): 17.02 ± 5.23 µmol/g tissue
GSH (glutathione (GSH); kidney, 200 mg/kg oral): 18.26 ± 3.28 µmol/g tissue
GSH (glutathione (GSH); liver, 100 mg/kg oral): 22.68 ± 1.20 µmol/g tissue
GSH (glutathione (GSH); liver, 200 mg/kg oral): 24.58 ± 4.47 µmol/g tissue
inhibition at 100 µM [2]: 49.4%
LPO (LPO; brain, 100 mg/kg oral): 8.36 ± 2.61 nmol/g tissue
LPO (LPO; brain, 200 mg/kg oral): 9.40 ± 2.08 nmol/g tissue
LPO (LPO; colon, 100 mg/kg oral): 8.66 ± 2.23 nmol/g tissue
LPO (LPO; colon, 200 mg/kg oral): 11.04 ± 2.11 nmol/g tissue
LPO (LPO; kidney, 100 mg/kg oral): 10.96 ± 2.01 nmol/g tissue
LPO (LPO; kidney, 200 mg/kg oral): 12.56 ± 2.96 nmol/g tissue
LPO (LPO; liver, 100 mg/kg oral): 9.78 ± 1.30 nmol/gtissue
LPO (LPO; liver, 200 mg/kg oral): 13.72 ± 3.05 nmol/gtissue
melting point: 215 to 218 °C
SOD ([5]; brain, 100 mg/kg oral): 19.17 ± 7.41 U/g tissue
SOD ([5]; brain, 200 mg/kg oral): 19.22 ± 10.76 U/g tissue
SOD ([5]; colon, 100 mg/kg oral): 16.56 ± 4.13 U/g tissue
SOD ([5]; colon, 200 mg/kg oral): 21.17 ± 4.15 U/g tissue
SOD ([5]; kidney, 100 mg/kg oral): 20.26 ± 8.71 U/g tissue
SOD ([5]; kidney, 200 mg/kg oral): 15.37 ± 7.33 U/g tissue
SOD ([5]; liver, 100 mg/kg oral): 21.15 ± 9.98 U/g tissue
SOD ([5]; liver, 200 mg/kg oral): 11.72 ± 5.10 U/g tissue
MPO (myeloperoxidase (MPO); brain, 100 mg/kg oral): 0.73 ± 0.32 U/gtissue
MPO (myeloperoxidase (MPO); brain, 200 mg/kg oral): 1.95 ± 0.60 U/gtissue
MPO (myeloperoxidase (MPO); colon, 100 mg/kg oral): 0.27 ± 0.13 U/gtissue
MPO (myeloperoxidase (MPO); colon, 200 mg/kg oral): 0.38 ± 0.14 U/gtissue
MPO (myeloperoxidase (MPO); kidney, 100 mg/kg oral): 3.18 ± 2.66 U/g tissue
MPO (myeloperoxidase (MPO); kidney, 200 mg/kg oral): 4.59 ± 1.01 U/g tissue
MPO (myeloperoxidase (MPO); liver, 100 mg/kg oral): 0.50 ± 0.28 U/gtissue
MPO (myeloperoxidase (MPO); liver, 200 mg/kg oral): 0.15 ± 0.08 U/gtissue
SMILES: CCNC(=S)NS(=O)(=O)c1ccc(-n2nc(C(F)(F)F)cc2-c2ccc(C)cc2)cc1 [Compound 1a, N-(Ethylcarbamothioyl)-4-[5-(4-methylphenyl)-3-(trifluoromethyl)-1H-pyrazol-1-yl] benzenesulfonamide]
Writhing test (% inh.) [3]: 67.8%
Writhing test (Mean ± SEM) ([3]; writhings counted 10 min from 5 min after acetic acid): 5.6 ± 0.9
cell growth inhibition [4]: negligible
Ulcer score (stomach): 0/5
